Measurements published in patent US20230105212A1, “BIPHENYL DERIVATIVE INHIBITOR, PREPARATION METHOD THEREFOR AND USE THEREOF” (SHANGHAI HANSOH BIOMEDICAL CO., LTD., priority 2020, published 2023).
Read-outs that look alike come from different tables or passages of the source.

Key:
human PD-L1 protein = target: T1, human PD-L1 protein (Homo sapiens, UniProt Q9NZQ7); test: Thermal shift: melting temperature of PD-L1 protein; format: binding; details: read-out: ΔTm (° C.)
T1 construct: purchased Acro Biosystems PD1-H5229
Procedure, shortened: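 Human PD-L1 at 2 μM final was tested in […], 150 mM NaCl with SYPRO Orange, heated 25→95 °C at 0.03 °C/s in a PCR melt-curve run. Tm was taken per treatment; ΔTm is the shift relative to DMSO vehicle.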

[1] = tested on: CHO-PDL1/Jurkat-PD1 cell pathway; test: Inhibition of CHO-PDL1/Jurkat-PD1 cell pathway (NFAT luciferase reporter); format: cell-based; details: for EC50: 6 hours incubation, luciferase signal; for maximal fold induction: relative to the signal value of the non-dosed group, read-out: Maximum induction fold
Procedure, shortened: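 CHO-K1 cells stably expressing PD-L1, plated overnight, then co-cultured with PD-1/NFAT-luc2 Jurkat cells plus compounds in RPMI 1640 with 2% FBS for 6 h at 37 °C. Luminescence read after One-Glo, 10 min at RT. EC50 fitted from the concentration–signal curve; maximum induction fold calculated relative to the non-dosed group.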

[2] = Plasma protein binding rate (equilibrium dialysis); format: in vitro ADME; details: mouse plasma, equilibrium dialysis 37° C. 5 hours
Method: Test Embodiment 8. Plasma Protein Binding Rate Experiment
The purpose of this experimental method was to detect the plasma protein binding of the embodiment compounds in plasma.
The frozen plasma was thawed at room temperature or in a water bath at 37° C., then centrifuged at 3500 rpm for 5 min, and the supernatant was taken.
Preparation of compound working solution: Stock solutions were diluted with DMSO to a final concentration of 1 mM.
2.5 μL of compound working solution was added to 497.5 μL of blank plasma to a final concentration of 5 μM, shaked and mixed well.
1) The equilibrium dialysis device was prepared, and the detection membrane device was put into the equilibrium dialysis 96-well plate;
2) 200 μL of the prepared plasma solution was added to the membrane, n=2;
3) another 5 μL of plasma solution was taken, diluted 10 times with 45 μL of blank plasma of the same species, and 200 μL of acetonitrile termination solution containing internal standard was added, and stored in a −20° C. refrigerator;
4) 350 μL of dialysate (100 mM phosphate buffer) was added outside the membrane;
5) the dialysis plate was sealed and incubated in a 37° C. water bath for 5 hours;
6) after dialysis, 5 μL was taken out from the sample hole in the membrane, and diluted 10 times with 45 μL of blank plasma of the same species; 50 μL of dialysate was taken out from the sample hole outside the membrane, and 200 μL of acetonitrile termination solution containing internal standard was added;
7) the supernatant was taken after sample centrifugation;

[3] = tested on: NFAT-luc2/PD1 Jurkat cells; test: In vitro cytotoxicity on NFAT-luc2/PD1 Jurkat cells (CellTiter-Glo); format: cell-based; details: 72 hours; for IC50: Homo sapiens, Jurkat
Procedure, shortened: (§1)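 Cells plated overnight at 37° C, 5% CO2, then exposed to serial compound dilutions for 72 hours. Viability measured by CellTiter-Glo luminescence; inhibition rate versus vehicle fitted by nonlinear regression to give IC50.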

MC38-hPDL1 cells = test: In vitro cytotoxicity on MC38-hPDL1 cells (CellTiter-Glo); format: cell-based, mouse; details: for MC38-hPDL1 inhibition rate (%): 72 hours; for IC50: Mus musculus, MC38-hPD-L1, 72 hours
Procedure, shortened: as §1

[4] = compound 10 μM, PD-L1 protein 2 μM, Tm minus DMSO vehicle control

T1 sequence (Q9NZQ7 19-238 limits assumed): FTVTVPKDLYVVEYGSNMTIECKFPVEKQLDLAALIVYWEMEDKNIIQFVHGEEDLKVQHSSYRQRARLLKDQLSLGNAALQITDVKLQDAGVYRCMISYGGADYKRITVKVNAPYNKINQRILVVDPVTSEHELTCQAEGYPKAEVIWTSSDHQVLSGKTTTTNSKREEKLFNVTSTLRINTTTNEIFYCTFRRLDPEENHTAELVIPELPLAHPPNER

ΔTm at 10 µM (human PD-L1 protein; [4])	fraction unbound at 5 h, 5 μM [2]	SMILES	EC50 [1]	maximal fold induction [1]	Jurkat-PD1 inhibition rate (%) [3]	IC50 [3]	MC38-hPDL1 inhibition rate (%) (MC38-hPDL1 cells)	IC50 (MC38-hPDL1 cells)	ΔTm at 10 µM (human PD-L1 protein)
21.4 °C	0.003	COc1nc(-c2cccc(-c3cccc(NC(=O)c4nc5c(n4C)CCN(C)C5)c3Cl)c2Cl)ccc1CN1CC2(C1)CN(C(=O)C(C)C)C2 [Embodiment 186, N-(2,2′-Dichloro-3′-(5-((6-isobutyryl-2,6-diazaspiro[3.3]heptan-2-yl)methyl)-6-methoxypyridin-2-yl)-[1,1′-biphenyl]-3-yl)-1,5-dimethyl-4,5,6,7-tetrahydro-1H-imidazo[4,5-c]pyridine-2-carboxamide]	61 nM	3	–	–	–	–	–
20.6 °C	0.0044	COc1nc(-c2cccc(-c3cccc(NC(=O)c4nc5c(n4C)CCN(C)C5)c3Cl)c2Cl)ccc1CN1CC(NC(C)=O)C1 [Embodiment 180, N-(3′-(5-((3-Acetylaminoazetidin-1-yl)methyl)-6-methoxypyridin-2-yl)-2,2′-dichloro-[1,1′-biphenyl]-3-yl)-1,5-dimethyl-4,5,6,7-tetrahydro-1H-imidazo[4,5-c]pyridine-2-carboxamide]	47 nM	3.1	–	–	–	–	–
17.1 °C	–	COc1nc(-c2cccc(-c3cccc(NC(=O)c4nc5c(n4C)CCN(C)C5)c3Cl)c2Cl)ccc1CN1CC2(CCC(=O)N2)C1 [Embodiment 126, N-(2,2′-Dichloro-3′-(6-methoxy-5-((6-carbonyl-2,5-diazaspiro[3.4]octan-2-yl)methyl)pyridin-2-yl)-[1,1′-biphenyl]-3-yl)-1,5-dimethyl-4,5,6,7-tetrahydro-1H-imidazo[4,5-c]pyridine-2-carboxamide]	94 nM	3.5	–	–	–	–	–
13.5 °C	–	COc1nc(-c2cccc(-c3cccc(NC(=O)c4nc5c(n4C)CCN(C)C5)c3Cl)c2Cl)ccc1CN1CC(O)(CO)C1 [Embodiment 173, N-(2,2′-Dichloro-3′-(5-((3-hydroxy-3-(hydroxymethyl)azetidin-1-yl)methyl)-6-methoxypyridin-2-yl)-[1,1-biphenyl]-3-yl)-1,5-dimethyl-4,5,6,7-tetrahydro-1H-imidazo[4,5-c]pyridine-2-carboxamide]	82 nM	3.7	–	–	–	–	–
21 °C	–	COc1nc(-c2cccc(-c3cccc(NC(=O)c4nc5c(n4C)CCN(C)C5)c3Cl)c2Cl)ccc1CN1CC(C(=O)N(C)C)C1 [Embodiment 183, N-(2,2′-Dichloro-3′-(5-((3-(dimethylcarbamoyl)azetidin-1-yl)methyl)-6-methoxypyridin-2-yl)-[1,1′-biphenyl]-3-yl)-1,5-dimethyl-4,5,6,7-tetrahydro-1H-imidazo[4,5-c]pyridine-2-carboxamide]	–	–	71%	5820 nM	14%	> 10000 nM	–
14 °C	–	COc1nc(-c2cccc(-c3cccc(NC(=O)c4nc5c(n4C)CCN(C)C5)c3Cl)c2Cl)ccc1CN1CC2(C1)CN(S(C)(=O)=O)C2 [Embodiment 192]	85 nM	3.8	–	–	–	–	–
16.6 °C	–	COc1nc(-c2cccc(-c3cccc(NC(=O)c4nc5c(n4C)CCN(C)C5)c3Cl)c2Cl)ccc1CNC(CO)CO [Embodiment 174, N-(2,2′-Dichloro-3′-(5-(((1,3-dihydroxypropan-2-yl)amino)methyl)-6-methoxypyridin-2-yl)-[1,1′-biphenyl]-3-yl)-1,5-dimethyl-4,5,6,7-tetrahydro-1H-imidazo[4,5-c]pyridine-2-carboxamide]	66 nM	3.5	–	–	–	–	–
18.7 °C	–	COc1nc(-c2cccc(-c3cccc(NC(=O)c4nc5c(n4C)CCN(C)C5)c3Cl)c2Cl)ccc1CNC[C@H](C)O [Embodiment 127, (S)—N-(2,2′-Dichloro-3′-(5-(((2-hydroxypropyl)amino)methyl)-6-methoxypyridin-2-yl)-[1,1′-biphenyl]-3-yl)-1,5-dimethyl-4,5,6,7-tetrahydro-1H-imidazo[4,5-c]pyridine-2-carboxamide]	–	–	–	–	–	–	–

Continued, compound first:

SMILES	ΔTm at 10 µM (human PD-L1 protein; [4])	fraction unbound at 5 h, 5 μM [2]	EC50 [1]	maximal fold induction [1]	Jurkat-PD1 inhibition rate (%) [3]	IC50 [3]	MC38-hPDL1 inhibition rate (%) (MC38-hPDL1 cells)	IC50 (MC38-hPDL1 cells)	ΔTm at 10 µM (human PD-L1 protein)
COc1nc(-c2cccc(-c3cccc(NC(=O)c4nc5c(n4C)CCN(C)C5)c3Cl)c2Cl)ccc1CN1CC2(CC(NC(C)=O)C2)C1 [Embodiment 234, N-(3′-(5-((6-Acetylamino-2-azaspiro[3.3]heptan-2-yl)methyl)-6-methoxypyridin-2-yl)-2,2′-dichloro-[1,1′-biphenyl]-3-yl)-1,5-dimethyl-4,5,6,7-tetrahydro-1H-imidazo[4,5-c]pyridine-2-carboxamide]	15.6 °C	–	78 nM	4.7	–	–	–	–	–
CNC(=O)CNCc1cnc(C(=O)Nc2cccc(-c3cccc(NC(=O)c4nc5c(n4C)CCN(C)C5)c3Cl)c2C)cc1OC [Embodiment 95, N-(2-Chloro-3′-(4-methoxy-5-(((2-(methylamino)-2-carbonylethyl)amino)methyl)picolinamido)-2′-methyl-[1,1′-biphenyl]-3-yl)-1,5-dimethyl-4,5,6,7-tetrahydro-1H-imidazo[4,5-c]pyridine-2-carboxamide]	14.4 °C	–	94 nM	3.8	–	–	–	–	–
COc1nc(-c2cccc(-c3cccc(NC(=O)c4nc5c(n4C)CCN(C)C5)c3Cl)c2Cl)ncc1CN1CC(CO)C1 [Embodiment 223, N-(2,2′-Dichloro-3′-(5-((3-(hydroxymethyl)azetidin-1-yl)methyl)-4-methoxypyrimidin-2-yl)-[1,1′-biphenyl]-3-yl)-1,5-dimethyl-4,5,6,7-tetrahydro-1H-imidazo[4,5-c]pyridine-2-carboxamide]	12.3 °C	–	73 nM	3.3	77%	4770 nM	2%	> 10000 nM	–
COc1nc(-c2cccc(-c3cccc(NC(=O)c4nc5c(n4C)CCN(C)C5)c3Cl)c2Cl)ccc1CN1CC2(COC2)C1 [Embodiment 124, N-(3′-(5-((2-Oxa-6-azaspiro[3.3]heptan-6-yl)methyl)-6-methoxypyridin-2-yl)-2,2′-dichloro-[1,1′-biphenyl]-3-yl)-1,5-dimethyl-4,5,6,7-tetrahydro-1H-imidazo[4,5-c]pyridine-2-carboxamide]	16.2 °C	0.0057	–	–	–	–	–	–	–
COc1nc(-c2cccc(-c3cccc(NC(=O)c4nc5c(n4C)CCN(C)C5)c3Cl)c2Cl)cnc1CN1CC(NC(C)=O)C1 [Embodiment 218, N-(3′-(5-((3-Acetylaminoazetidin-1-yl)methyl)-6-methoxypyrazin-2-yl)-2,2′-dichloro-[1,1′-biphenyl]-3-yl)-1,5-dimethyl-4,5,6,7-tetrahydro-1H-imidazo[4,5-c]pyridine-2-carboxamide]	13.7 °C	–	54 nM	2.8	85%	4320 nM	51%	9340 nM	–
COc1nc(-c2cccc(-c3cccc(NC(=O)c4nc5c(n4C)CCN(C)C5)c3Cl)c2Cl)ncc1CN1CC(CNC(C)=O)C1 [Embodiment 225, N-(3′-(5-((3-(Acetylaminomethyl)azetidin-1-yl)methyl)-4-methoxypyrimidin-2-yl)-2,2′-dichloro-[1,1′-biphenyl]-3-yl)-1,5-dimethyl-4,5,6,7-tetrahydro-1H-imidazo[4,5-c]pyridine-2-carboxamide]	–	–	–	–	51%	9070 nM	1%	> 10000 nM	–
COc1nc(-c2cccc(-c3cccc(NC(=O)c4nc5c(n4C)CCN(C)C5)c3Cl)c2Cl)ccc1CN1CC(F)C1 [Embodiment 120, N-(2,2′-Dichloro-3′-(5-((3-fluoroazetidin-1-yl)methyl)-6-methoxypyridin-2-yl)-[1,1′-biphenyl]-3-yl)-1,5-dimethyl-4,5,6,7-tetrahydro-1H-imidazo[4,5-c]pyridine-2-carboxamide]	–	–	70 nM	3.2	–	–	–	–	15.8 °C
